The record followed here is patent US12522579B2, “Monoamine oxidase B imaging probe” (TOHOKU UNIVERSITY, priority 2018, dated 2026).

In data set [1] the target is T1, MAO-B (Homo sapiens (Human), UniProt P27338). The experiment in a line: Competitive binding test against MAO-B with [3H] THK-5351. To be noted: for IC50: MAO-B membrane fractions, label ligand [3H] THK-5351; for binding to MAO-B (in words): competitive binding test. The protocol:
MAO-B (M7441) was purchased from Sigma Aldrich Co. LLC (St. Louis, MO). The MAO-B membrane fractions (0.5 μg), and 0.1 to 10,000 nM of [3H] […] The reaction solution was transferred to MultiScreen HTS 96-well […] filtration plate (Millipore, Billerica, MA), and a B/F separation was conducted with a MultiScreen HTS Vacuum Manifold, and the mixture was washed with Dulbecco's PBS, and 0.1% BSA three times, and the filter was incubated with 2 mL of Scintillation fluid (Emulssifer-Safe; Perkin Elemer, Boston, MA), and a radio activity was measured with a beta counter (LS6500 liquid scintillation counter, Beckman Counter, Brea, CA). IC50 value was calculated by using Graph Pad Prism Version 7 (GraphPad Software, San Diego, CA).

The target of the next data set is tau (Homo sapiens, UniProt P10636). The experiment in a line: Competitive binding against tau in Alzheimer's disease brain with [3H] MK-6240. To be noted: for IC50: Alzheimer's disease brain (Braak stage VI), label ligand [3H] MK-6240; for binding to tau (in words): competitive binding test. The protocol: A binding affinity against tau containined in a AD brain was conducted by using Alzheimer's disease brain (Braak stage VI) and [3H] MK-6240 (manufactured by Metck & Co) as a label ligand. The IC50 value was calculated similarly to the case of MAO-B.
Sequence of tau (P10636 2-758 limits assumed): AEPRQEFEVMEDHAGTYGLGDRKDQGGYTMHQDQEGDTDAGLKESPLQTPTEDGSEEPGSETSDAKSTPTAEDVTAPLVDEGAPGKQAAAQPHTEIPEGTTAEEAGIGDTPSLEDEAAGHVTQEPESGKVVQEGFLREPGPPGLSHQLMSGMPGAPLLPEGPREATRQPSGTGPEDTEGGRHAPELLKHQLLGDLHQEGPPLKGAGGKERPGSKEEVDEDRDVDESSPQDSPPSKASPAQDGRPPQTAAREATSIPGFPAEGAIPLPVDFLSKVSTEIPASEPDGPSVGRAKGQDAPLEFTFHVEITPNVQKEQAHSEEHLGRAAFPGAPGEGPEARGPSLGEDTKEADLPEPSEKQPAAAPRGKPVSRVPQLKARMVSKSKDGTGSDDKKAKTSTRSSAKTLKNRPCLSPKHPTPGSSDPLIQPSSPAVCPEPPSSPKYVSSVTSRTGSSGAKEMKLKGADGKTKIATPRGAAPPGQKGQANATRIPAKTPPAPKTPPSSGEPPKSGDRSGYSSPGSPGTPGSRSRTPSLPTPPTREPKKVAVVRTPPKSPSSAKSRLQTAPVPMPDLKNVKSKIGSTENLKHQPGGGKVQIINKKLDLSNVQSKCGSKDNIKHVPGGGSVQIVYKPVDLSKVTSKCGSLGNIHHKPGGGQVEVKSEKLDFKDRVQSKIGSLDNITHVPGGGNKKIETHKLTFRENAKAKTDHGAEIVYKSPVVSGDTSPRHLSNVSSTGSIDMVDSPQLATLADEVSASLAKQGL

For a further data set, the target named is MAO-A (Homo sapiens (Human), UniProt P21397). The experiment in a line: Competitive binding test against MAO-A with [18F] Fluoroethyl harmine. To be noted: for binding against MAO-A (in words): competitive binding test; for IC50: label ligand [18F] Fluoroethyl harmine. As for the experimental part: MAO-A (M7316) was purchased from Sigma Aldrich Co. LLC (St. Louis, MO). The […] (0.5 μg) and 0.1 to 10,000 nM of [^18F] Fluoroethyl harmine (10 μCi/mL, 2 nM) […] were mixed (200 μL), and the mixture was reacted at room temperature for 1 hour. The reaction solution was transfered to MultiScreen HTS 96-well 0.65 μm filtration plate (Millipore, Billerica, MA), and a B/F separation was conducted with MultiScreen HTS Vacuum Manifold, and washed with Dulbecco's PBS and 0.1% BSA three times, and a radioactivity contained in a filter was measured with a gamma counter (AccFLEX γ7000, manufactured from ALOKA Co. Ltd.). The IC50 value was calculated similarly to the case of MAO-B.
Sequence of MAO-A (P21397 whole entry): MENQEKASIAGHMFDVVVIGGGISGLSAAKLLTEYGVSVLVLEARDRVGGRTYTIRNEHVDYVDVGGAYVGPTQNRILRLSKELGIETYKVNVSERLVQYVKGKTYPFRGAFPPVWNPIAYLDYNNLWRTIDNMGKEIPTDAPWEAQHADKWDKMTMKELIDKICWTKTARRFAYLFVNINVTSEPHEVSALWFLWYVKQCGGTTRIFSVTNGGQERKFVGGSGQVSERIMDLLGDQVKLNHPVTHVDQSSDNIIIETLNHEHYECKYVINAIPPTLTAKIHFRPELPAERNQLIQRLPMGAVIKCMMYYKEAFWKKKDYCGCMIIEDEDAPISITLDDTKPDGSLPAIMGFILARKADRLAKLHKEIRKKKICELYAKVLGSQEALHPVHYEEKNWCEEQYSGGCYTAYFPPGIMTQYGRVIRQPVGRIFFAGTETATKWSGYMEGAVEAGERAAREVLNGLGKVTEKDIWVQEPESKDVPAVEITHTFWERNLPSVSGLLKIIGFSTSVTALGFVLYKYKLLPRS

Data set [2] has as its target T1, MAO-B. The data set is described as follows: In vitro autoradiography of human necropsy brain sections. It counts as binding. The protocol:
Each […] slice frozen section of a normal necropsy brain (person) and an Alzheimer's disease necropsy brain (person; neurofibrillary tangles stage was Braak stage VI) was dried at room temperature, and phosphate buffered saline (PBS) was added thereto and the wetting treatment was consucted for 30 minutes. Pre-incubation was conducted for 30 minutes by using PBS containing 1% bovine serum albumin (BSA). A PBS (370 kBq/mL) containing 1% BSA of the ^18F labeled compound were added dropwise to the section, and the reaction was conducted at room temperature for 30 minutes. In order to evaluate a specific binding to MAO-B, a similar reaction to the above reaction was conducted in the presence of MAO-B selective inhibitor (that is, Lazabemide) (10 μM). After that, the section was washed by soaking it in PBS containing 1% BSA for 5 minutes, and further in PBS for 5 minutes twice. After the section was dried at room temperature, an imaging plate (GE healthcare, BAS-MS 2025) was exposed to light, and an image (spartial resolution 25 μm×25 μm) was acquired by a FLA-9500 imaging analyzer plate (GE healthcare). The adjacent sections were subjected to an immunostaining using MAO-B (manufactured from Sigma, Aldrich, Co. LLC), AT8 tau (manufactured from Innogenetics, N.V.), or 6F/3D 6-amyloid (DAKO) antibody, and the resulting stainned distributions were compared with a distribution of a binding to tracer. Similar tests were conducted by using as comparative compound, (S)-[^18F] HK-5174 (WO 2017/103257 A1), and(S)-[^18F] THK-5351, each having the following structural formula respectively.

Data set [3] in a line: Dynamic evaluation (body distribution) in normal mouse. Type of data set: in vivo. To be noted: bone accumulation, male ICR mouse. The protocol: Each saline containing [^18F] HK-5470 as the compound of the present invention, (S)-[^18F] HK-5174 as the comparative compound, or [^18F] HK-5351 as the ^18F labeled-compound (740 kBq) was administered intravenously via tail to male ICR mouse (6 weeks old), and after 2 min., 10 min., 30 min., 60 min., and 120 min., cervical dislocation of mouse was performed under ether anesthesia, and each organ tissue including brain was extracted, and a weight and a radioactivity of each organ was measured with Gamma counter (AccuFLEX γ7000, measured by Hitachi-Aloka Medical, Tokyo). The accumulation of radioactivity was evaluated by making the ratio of radioactivity per weight of tissue against total administered radioactivity (% Injected Dose/g of tissue; % ID/g) an index. The evaluation was conducted in a ratio of four per group.

Structures are written as SMILES. Bounds are passed on as bounds.

T1 sequence (P27338 whole entry): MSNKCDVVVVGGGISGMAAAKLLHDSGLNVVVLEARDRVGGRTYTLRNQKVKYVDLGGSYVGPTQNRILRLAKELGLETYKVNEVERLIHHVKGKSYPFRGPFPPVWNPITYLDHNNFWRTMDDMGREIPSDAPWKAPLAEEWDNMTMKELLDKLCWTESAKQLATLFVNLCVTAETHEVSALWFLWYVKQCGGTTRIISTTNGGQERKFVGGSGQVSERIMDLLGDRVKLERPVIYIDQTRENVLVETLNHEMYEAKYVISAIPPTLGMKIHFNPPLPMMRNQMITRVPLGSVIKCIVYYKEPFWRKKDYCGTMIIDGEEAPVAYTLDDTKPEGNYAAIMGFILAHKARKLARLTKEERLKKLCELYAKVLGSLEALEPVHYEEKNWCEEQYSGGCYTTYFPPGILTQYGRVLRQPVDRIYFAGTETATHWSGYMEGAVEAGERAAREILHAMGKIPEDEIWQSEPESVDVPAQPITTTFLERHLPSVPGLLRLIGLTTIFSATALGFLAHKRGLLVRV

As to `Cc1cc(-c2ccc3cc(OC[C@H](O)CF)ccc3n2)ccn1` [THK-5471], on MAO-B [1], the IC50 was found to be 12.9 nM and the “binding to MAO-B (in words)” value is listed as “significantly high binding”. For the same compound, at tau, the half-maximal inhibitory concentration (IC50) was 192 nM and the “binding to tau (in words)” value is recorded as “low binding”. On MAO-A, the “binding against MAO-A (in words)” value is on record as “low binding” and the 50% inhibitory concentration (IC50) stood at 1740 nM.

Regarding `Cc1ncccc1-c1ccc2cc(OC[C@H](O)CF)ccc2n1` [THK-5472], the 50% inhibitory concentration (IC50) on MAO-B [1] came out at 550 nM. Besides, on tau, the half-inhibitory concentration (IC50) is greater than 10000 nM and the “binding to tau (in words)” value is recorded as “low binding”. Besides, on MAO-A, the “binding against MAO-A (in words)” value is “low binding” and the IC50 is greater than 10000 nM.

Turning to `Cc1ccc(-c2ccc3cc(OC[C@H](O)CF)ccc3n2)cn1` [THK-5470], the IC50 at tau was 4460 nM; on MAO-A, 713 nM.

With `CNc1ccc(-c2ccc3cc(OC[C@H](O)C[18F])ccc3n2)cn1` [[^18F] THK-5351], on MAO-B [2] (18F labeled compound 370 kBq/mL, autoradiography), the “accumulation in Alzheimer's disease (AD) frontal lobe sections” value is on record as “high accumulation”. For the same compound, the “binding in the presence of MAO-B selective inhibitor Lazabemide” value on MAO-B [2] (Lazabemide 10 μM, AD frontal lobe section) is “decrease in the binding”. Moreover, the “specificity of binding (autoradiography conclusion)” value at MAO-B [2] (human brain sections, compared with MAO-B and tau immunostaining) is “binds to both MAO-B and tau”. Further, in data set [3], the defluorination to bone entry is “could not be confirmed”.

For the compound `Cc1cncc(-c2ccc3cc(OC[C@H](O)CF)ccc3n2)c1` [THK-5474], on MAO-B [1], the half-inhibitory concentration (IC50) is 12.2 nM and the “binding to MAO-B (in words)” value was “significantly high binding”. Moreover, at tau, the IC50 was 9630 nM and the “binding to tau (in words)” value was “low binding”. Besides, at MAO-A, the “binding against MAO-A (in words)” value is given as “low binding” and the IC50 was greater than 10000 nM.

As for `Cc1ccncc1-c1ccc2cc(OC[C@H](O)CF)ccc2n1` [THK-5473], the IC50 on MAO-B [1] stood at 294 nM. Moreover, on tau, the IC50 is greater than 10000 nM and the “binding to tau (in words)” value was “low binding”. Also, on MAO-A, the “binding against MAO-A (in words)” value is listed as “low binding” and the IC50 was greater than 10000 nM.

`CNc1ccc(-c2ccc3cc(OC[C@H](O)CF)ccc3n2)cn1` [THK-5351, reference compound]: the results for the IC50 at MAO-B [1], on tau and at MAO-A were 5 nM, 150 nM and greater than 10000 nM, respectively. The “binding to MAO-B (in words)” value at MAO-B [1] is reported as “high binding”. Moreover, the “binding to tau (in words)” value on tau is on record as “mild binding”.
